Values quoted from earlier work, collected in patent US20130217673A1, “MIXED MONOAMINE REUPTAKE INHIBITOR IN A BIODEGRADABLE POLYMER CARRIER” (Warsaw Orthopedic, Inc, priority 2012, published 2013).

Test system: nociception
Settings: compared with bupivacaine

Row | SMILES | duration of the effect in blocking nociception | potency in blocking nociception relative to bupivacaine
1 | CN(C)CCC=C1c2ccccc2CCc2ccccc21 [amitryptyline, 3-(10,11-dihydro-5H-dibenzo[a,d]cycloheptene-5-ylidene)-N,N-dimethylpropan-1-amine] | the effects last longer | at least three times more potent than bupivacaine
2 | CN(C)CCC=C1c2ccccc2COc2ccccc21 [doxepin] | the effects last longer | at least three times more potent than bupivacaine
